These results are taken from patent US11433138B2, “Nanocarriers and intracellular delivery of same” (Georgia Tech Research Corporation, priority 2016, dated 2022).

The subject of one assay is mouse IgG (IgGM). As to the kind of experiment: Binding kinetics to biotinylated IgG immobilized on optical biosensors (mouse IgG). The procedure: (§1) Biotinylated IgG was immobilized onto optical biosensors to enable high throughput kinetic analyses in microplate format. The IgG-binding behavior to the Hex nanocarrier in comparison to soluble SPAB at neutral and acidic pH was assessed.

In a further assay the target is rabbit IgG (IgGR). As to the kind of experiment: Binding kinetics to biotinylated IgG immobilized on optical biosensors (rabbit IgG). The method, then: as §1

With “domain B of staphylococcal protein A [SPAB]”, in the assay with mouse IgG (IgGM), the “stronger binding at neutral pH compared to pH 5.0” value is 17 fold. In addition, the “affinities towards mouse IgG (in words)” value on mouse IgG (IgGM) (neutral pH and pH 5.0) was “nanomolar”. The Kd – broadly, the free concentration of one partner at which half of the binding sites on the other are occupied at equilibrium, for simple one-to-one binding – at mouse IgG (IgGM) (pH 5.0) turned out to be 470 ± 19 nM; on mouse IgG (IgGM) (pH 7.4), 28.3 ± 2.8 nM; on rabbit IgG (IgGR) (pH 5.0), 255 ± 17 nM; at rabbit IgG (IgGR) (pH 7.4) it was 53 ± 2 nM.
